{"source": "ChEMBL document CHEMBL1140769", "about": "“Characterization of distamycin A binding to damaged DNA” (Bioorg Med Chem, 2008)", "key": {"[1]": {"assay": "Binding affinity to AP.A-20 DNA duplex by CD titration"}, "[2]": {"assay": "Binding affinity to T.A-20 DNA duplex by CD titration"}, "[3]": {"assay": "Binding affinity to MG.C-20 DNA duplex by CD titration"}, "[4]": {"assay": "Binding affinity to OG.A-20 DNA duplex by CD titration"}, "[5]": {"assay": "Binding affinity to G.A-20 DNA duplex by CD titration"}}}
{"smiles": "Cn1cc(NC(=O)c2cc(NC(=O)c3cc(NC=O)cn3C)cn2C)cc1C(=O)NCCC(=N)N", "note": "[STALLIMYCIN]", "values": [{"measurement": "Kd", "setting": "[1]", "result": 2000, "unit": "nM"}, {"measurement": "Kd", "setting": "[2]", "result": 370, "unit": "nM"}, {"measurement": "Kd", "setting": "[3]", "result": 7600, "unit": "nM"}, {"measurement": "Kd", "setting": "[4]", "result": 200, "unit": "nM"}, {"measurement": "Kd", "setting": "[5]", "result": 3700, "unit": "nM"}]}
